In US20100298141A1, “SUBSTITUTED PYRIDINE N-OXIDE HERBICIDES” (E. I. DU PONT DE NEMOURS AND COMPANY, priority 2007, published 2010):

What was measured:
barnyardgrass [1] = experiment: Test A pre-/postemergence greenhouse test; format: in vivo, Echinochloa crus-galli; details: for Barnyardgrass plant response rating: 0 to 100 scale
Procedure, shortened: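 Visual injury ratings, made relative to untreated controls roughly ten days after treatment, cover both preemergence and postemergence application. Compounds in a surfactant-containing non-phytotoxic solvent were sprayed onto the soil surface after sowing and, simultaneously, onto young plants at the one- to two-leaf stage.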

cocklebur = experiment: Test C pre-/postemergence test; format: in vivo, Xanthium strumarium
Procedure, shortened: (§1)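 Test chemicals were formulated with surfactant in a non-phytotoxic solvent and sprayed both on freshly planted seeds (preemergence) and on 1- to 4-leaf plants of 2–18 cm (postemergence). Flooded-paddy pots received compound directly into 3 cm of standing water, maintained for the test.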

kochia = experiment: Test C pre-/postemergence test; format: in vivo, Kochia scoparia; details: Preemergence
Procedure, shortened: as §1

velvetleaf = experiment: Test C pre-/postemergence test; format: in vivo, Abutilon theophrasti; details: Preemergence
Procedure, shortened: as §1

green foxtail = experiment: Test F preemergence test; format: in vivo, Setaria viridis; details: scale 0 to 100
Procedure, shortened: (§2)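 Greenhouse screen: test chemical in surfactant-containing non-phytotoxic solvent applied preemergence to sown seeds or postemergence to sugarcane plants; after 14 to 21 days each species scored visually versus controls.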

mustard = experiment: Test F preemergence test; format: in vivo, Brassica nigra; details: scale 0 to 100
Procedure, shortened: as §2

dallisgrass = experiment: Test F preemergence test; format: in vivo, Paspalum dilatatum; details: scale 0 to 100
Procedure, shortened: as §2

barnyardgrass [2] = experiment: Test F preemergence test; format: in vivo, Echinochloa crus-galli; details: scale 0 to 100
Procedure, shortened: as §2

broadleaf signalgrass = experiment: Test F preemergence test; format: in vivo, Brachiaria platyphylla; details: scale 0 to 100
Procedure, shortened: as §2

Virginia dayflower = experiment: Test F preemergence test; format: in vivo, Commelina virginica; details: scale 0 to 100
Procedure, shortened: as §2

annual bluegrass = experiment: Test F preemergence test; format: in vivo, Poa annua; details: scale 0 to 100
Procedure, shortened: as §2

itchgrass = experiment: Test F preemergence test; format: in vivo, Rottboellia cochinchinensis; details: scale 0 to 100
Procedure, shortened: as §2

field bindweed = experiment: Test F preemergence test; format: in vivo, Convolvulus arvensis; details: scale 0 to 100
Procedure, shortened: as §2

common mallow = experiment: Test F preemergence test; format: in vivo, Malva sylvestris; details: scale 0 to 100
Procedure, shortened: as §2

[3] = 31 g ai/ha, scale 0 to 100 (0 no effect, 100 complete control)

SMILES: Cc1cc[n+]([O-])c([S+]([O-])Cc2c(C(F)(F)F)nn(C)c2Cl)c1 (racemic) [Compound 20]
- Barnyardgrass plant response rating (barnyardgrass [1]; Postemergence, 125 g ai/ha, 0 is no effect, 100 is complete control): 40
- Barnyardgrass plant response rating (barnyardgrass [1]; Postemergence, 500 g ai/ha, 0 is no effect, 100 is complete control): 80
- Barnyardgrass plant response rating (barnyardgrass [1]; Preemergence, 125 g ai/ha, 0 no effect, 100 complete control): 70
- Plant response rating, Barnyardgrass (barnyardgrass [1]; Preemergence, 500 g ai/ha, 0 to 100 scale where 0 is no effect and 100 is complete control): 100
- Cocklebur plant response rating (cocklebur; 62 g ai/ha, Preemergence, scale 0 to 100): 0
- Plant response rating, Cocklebur (cocklebur; Preemergence, 31 g ai/ha, scale 0 to 100 (0 no effect, 100 complete control)): 0
- Plant response rating (0 to 100), Cocklebur (cocklebur; Preemergence, 250 g ai/ha): 20
- Cocklebur plant response rating (cocklebur; preemergence, 125 g ai/ha, scale 0 (no effect) to 100 (complete control)): 0
- Kochia plant response rating (kochia; 62 g ai/ha, scale 0 to 100): 100
- Plant response rating, Kochia (kochia; [3]): 0
- Velvetleaf plant response rating (velvetleaf; 62 g ai/ha, scale 0 to 100): 5
- Plant response rating, Velvetleaf (velvetleaf; [3]): 0
- Plant response rating, Foxtail, Green (green foxtail; 8 g ai/ha, preemergence): 0
- Foxtail, Green plant response rating (green foxtail; 62 g ai/ha, Preemergence): 75
- Plant response rating, Foxtail, Green (green foxtail; Preemergence, 16 g ai/ha): 10
- Plant response rating, Foxtail, Green (green foxtail; Preemergence, 31 g ai/ha): 40
- Plant response rating, Black Mustard (mustard; 8 g ai/ha, preemergence): 0
- Black Mustard plant response rating (mustard; 62 g ai/ha, Preemergence): 90
- Plant response rating, Black Mustard (mustard; Preemergence, 16 g ai/ha): 50
- Plant response rating, Black Mustard (mustard; Preemergence, 31 g ai/ha): 60
- Plant response rating, Dallisgrass (dallisgrass; 8 g ai/ha, preemergence): 0
- Dallisgrass plant response rating (dallisgrass; 62 g ai/ha, Preemergence): 75
- Plant response rating, Dallisgrass (dallisgrass; Preemergence, 16 g ai/ha): 0
- Plant response rating, Dallisgrass (dallisgrass; Preemergence, 31 g ai/ha): 20
- Plant response rating, Barnyardgrass (barnyardgrass [2]; 8 g ai/ha, preemergence): 0
- Barnyardgrass plant response rating (barnyardgrass [2]; 62 g ai/ha, Preemergence): 90
- Plant response rating, Barnyardgrass (barnyardgrass [2]; Preemergence, 16 g ai/ha): 40
- Plant response rating, Barnyardgrass (barnyardgrass [2]; Preemergence, 31 g ai/ha): 80
- Plant response rating, Signalgrass (broadleaf signalgrass; 8 g ai/ha, preemergence): 50
- Plant response rating, Signalgrass (broadleaf signalgrass; 16 g ai/ha, preemergence): 35
- Signalgrass plant response rating (broadleaf signalgrass; 62 g ai/ha, Preemergence): 75
- Plant response rating, Signalgrass (broadleaf signalgrass; Preemergence, 31 g ai/ha): 65
- Plant response rating, Dayflower (Virginia dayflower; 8 g ai/ha, preemergence): 0
- Dayflower plant response rating (Virginia dayflower; 62 g ai/ha, Preemergence): 60
- Plant response rating, Dayflower (Virginia dayflower; Preemergence, 16 g ai/ha): 0
- Plant response rating, Dayflower (Virginia dayflower; Preemergence, 31 g ai/ha): 0
- Plant response rating, Bluegrass (annual bluegrass; 8 g ai/ha, preemergence): 0
- Bluegrass plant response rating (annual bluegrass; 62 g ai/ha, Preemergence): 40
- Plant response rating, Bluegrass (annual bluegrass; Preemergence, 16 g ai/ha): 0
- Plant response rating, Bluegrass (annual bluegrass; Preemergence, 31 g ai/ha): 0
- Plant response rating, Itchgrass (itchgrass; 8 g ai/ha, preemergence): 0
- Itchgrass plant response rating (itchgrass; 62 g ai/ha, Preemergence): 70
- Plant response rating, Itchgrass (itchgrass; Preemergence, 16 g ai/ha): 0
- Plant response rating, Itchgrass (itchgrass; Preemergence, 31 g ai/ha): 15
- Plant response rating, Field Bindweed (field bindweed; 8 g ai/ha, preemergence): 0
- Field Bindweed plant response rating (field bindweed; 62 g ai/ha, Preemergence): 15
- Plant response rating, Field Bindweed (field bindweed; Preemergence, 16 g ai/ha): 0
- Plant response rating, Field Bindweed (field bindweed; Preemergence, 31 g ai/ha): 0
- Plant response rating, Mallow (common mallow; 8 g ai/ha, preemergence): 0
- Mallow plant response rating (common mallow; 62 g ai/ha, Preemergence): 60
- Plant response rating, Mallow (common mallow; Preemergence, 16 g ai/ha): 0
- Plant response rating, Mallow (common mallow; Preemergence, 31 g ai/ha): 25
